Experimental findings from US4303660A, “Pyrazolo[1,5-c]quinazoline derivatives and analgesic compositions containing them” (priority 1979, dated 1981) are described below.

Structures are written as SMILES. Read-outs that look alike come from different tables or passages of the source.

A word on the ED50: it is the midpoint of the dose-response relation. The term LD50 denotes the dose expected to kill half of the subjects tested. A high value points to lower toxicity.

One data set has as its system acetic acid writhing. The data set can be described thus: Acetic acid writhing test (analgesic activity). The conditions noted are these: for ED50: Mus musculus, read-out: ED50 p.o. Here is the method:
The analgesic activity was studied by means of the acetic acid writhing test on mice. After the intraperitoneal administration of 0.4 ml of 0.5 percent acetic acid, the writhing responses were counted between the 5 and 10 minutes. The writhing number was calculated as the percentage of the control value. The compounds tested were orally administered to the animals 1 hour prior to the treatment with acetic acid. […] Paracetamole [p-hydroxyacetanilide] and phenylbutazon [4-butyl-1,2-diphenylpyrazolidine-3,5-dione] were used as reference substance.
On the technique in general: In writhing tests, fewer writhes than in controls are read as antinociception.

A further data set can be described thus: Acute toxicity. The conditions noted are these: mouse, in vivo; oral; mice weighing 18 to 22 g. The procedure: The acute toxicity of the pyrazolo[1,5-c]quinazoline derivatives of the general formula I were determined on mice weighing 18 to 22 g. The compounds were administered orally.
Another data set has as its system gastric acid secretion. The format is in vivo, rats. As to conditions: for Inhibition of gastric acid secretion, percentage: rats. The source says:
The influence of the compounds of the invention on the gastric acid secretion was studied on rats weighing 170 to 260 g according to Shay [Gastroenterology, 5, 43 (1945)].

The subject of another data set is small intestine. Put plainly: Antiperistaltic effect (carbon suspension, small intestine). In kind it is in vivo, mice. As to conditions: for ED50: Mus musculus, read-out: ED50 p.o. The procedure: The antiperistaltic effect of the compounds of the invention was examined on groups of mice consisting of 10 animals. Each dosis of the compound to be tested was administered to one group, orally, 60 minutes prior to the administration of a 10 percent carbon suspension. 20 minutes after the administration of the carbon suspension, the animals were sacrificed and the length of the entire small intestine as well as that of the small intestine filled with carbon were determined. The reference substance used was papaverine [1-(3,4-dimethoxybenzyl)-6,7-dimethoxyisoquinoline].

The nature of another data set: in vivo. The conditions noted are these: printed under the reference substance in Table III.
Setting [1] is: antiperistaltic effect, oral, 60 minutes prior to 10 percent carbon suspension, mice.

As to `CC(=O)Nc1ccc(O)cc1` [paracetamole, p-hydroxyacetanilide, reference compound], in the data set with acetic acid writhing (po), the ED50 worked out at 180 mg/kg. In addition, the Therapeutic index in the data set with acetic acid writhing (analgesic activity test, p.o.) is reported as 2,8.
With `CC(=O)N1c2ccccc2-c2c([N+](=O)[O-])cnn2C1C` (stereo not drawn) [Example 27, 1-Nitro-5-methyl-6-acetyl-5,6-dihydropyrazolo[1,5-c]quinazoline], the LD50 in “Acute toxicity” turned out to be 2000 mg/kg. The “Inhibition of gastric acid secretion, percentage” value (shortened to “Inhibition … percentage”) in the data set on gastric acid secretion (50 mg/kg p.o.) is reported as 33 percentage; with gastric acid secretion (62 mg/kg p.o.), “about 50 percentage”; in the data set with gastric acid secretion (100 mg/kg p.o.), 82 percentage. Besides, the Therapeutic index in the data set with gastric acid secretion (rat, in vivo, po) is given as 32.3; in the data set on small intestine (mouse, in vivo, po) it was 40. Besides, in the data set with small intestine (setting [1]), the ED50 was determined as 50 mg/kg.
On to `CC(=O)N1c2ccccc2-c2c([N+](=O)[O-])cnn2C1(C)C` [Example 31, 1-Nitro-5,5-dimethyl-6-acetyl-5,6-dihydropyrazolo[1,5-c]quinazoline], for which the LD50 in the data set “Acute toxicity” was found to be 2000 mg/kg. In the data set with small intestine (setting [1]), the ED50 is 50 mg/kg. This compound also yielded a Therapeutic index with small intestine (mouse, in vivo, po) of 40.
Regarding `CC(=O)Nc1cnn2c1-c1ccccc1N(C(C)=O)C2C` (stereo not drawn) [Example 35, 1-Acetamino-5-methyl-6-acetyl-5,6-dihydropyrazolo[1,5-c]quinazoline], in “Acute toxicity”, the LD50 was determined as 2000 mg/kg. In the data set on small intestine (setting [1]), the 50% effective dose (ED50) turned out to be 145 mg/kg. Further, the Therapeutic index in the data set with small intestine (mouse, in vivo, po) worked out at 14.
Taken in the same sequence, the figures for `Cc1nc2ccccc2c2c([N+](=O)[O-])cnn12` [Example 3, 1-Nitro-5-methylpyrazolo[1,5-c]quinazoline] were 2000 mg/kg, 400 mg/kg and 5.
In the data set “Acute toxicity”, `CC(=O)Nc1cnn2c1-c1ccccc1NC2(C)C` [Example 33, 1-Acetamino-5,5-dimethyl-5,6-dihydropyrazolo[1,5-c]quinazoline] displayed an LD50 of 2000 mg/kg. Further, the ED50 with small intestine (setting [1]) was 45 mg/kg. This compound had a Therapeutic index with small intestine (mouse, in vivo, po) of 45.
`O=[N+]([O-])c1cnn2cnc3ccccc3c12` [Example 1, 1-Nitropyrazolo[1,5-c]quinazoline] registered an LD50 in “Acute toxicity” of 2000 mg/kg. Also, the ED50 in the data set with acetic acid writhing (po) turned out to be 50 mg/kg; with small intestine (setting [1]) it was 18 mg/kg. Moreover, the Therapeutic index with acetic acid writhing (mouse, in vivo, po) worked out at 40; in the data set on small intestine (mouse, in vivo, po), 111.
For `CCCCC1C(=O)N(c2ccccc2)N(c2ccccc2)C1=O` [phenylbutazon, 4-butyl-1,2-diphenylpyrazolidine-3,5-dione, reference compound], the ED50 in the data set on acetic acid writhing (po) amounted to 60 mg/kg. In addition, the Therapeutic index in the data set with acetic acid writhing (mouse, in vivo, po) is 16,6.
In “Acute toxicity”, `CC1(C)Nc2ccccc2-c2c([N+](=O)[O-])cnn21` [Example 9, 1-Nitro-5,5-dimethyl-5,6-dihydropyrazolo[1,5-c]quinazoline] registered an LD50 of 2000 mg/kg. For the same compound, in the data set with small intestine (setting [1]), the ED50 came to 400 mg/kg. In the data set with small intestine (mouse, in vivo, po), this compound had a Therapeutic index of 5.
For `CC(=O)Nc1cnn2c(C)nc3ccccc3c12` [Example 36, 1-Acetamino-5-methylpyrazolo[1,5-c]quinazoline], in the data set “Acute toxicity”, the LD50 is 1800 mg/kg. Moreover, the “Inhibition … percentage” value is recorded as 30 percentage in the data set on gastric acid secretion (50 mg/kg p.o.), “about 50 percentage” with gastric acid secretion (65 mg/kg p.o.) and 73 percentage in the data set on gastric acid secretion (100 mg/kg p.o.). Besides, the Therapeutic index in the data set on gastric acid secretion (rat, in vivo, po) came out at 27.7; with small intestine (mouse, in vivo, po), 5. Also, in the data set on small intestine (setting [1]), the ED50 amounted to 360 mg/kg.
Consider `COc1ccc(Cc2nccc3cc(OC)c(OC)cc23)cc1OC` [papaverine, 1-(3,4-dimethoxybenzyl)-6,7-dimethoxyisoquinoline, reference compound], for which the ED50 in the data set with small intestine (po) was found to be 180 mg/kg. The compound further displayed a Therapeutic index with small intestine (antiperistaltic effect, p.o.) of 3.4.
As for `CN/C(=N/CCSCc1nc[nH]c1C)NC#N` [cimetidine, 1-methyl-3-[2-(5-methylimidazol-4-yl-methylthio)ethyl]guanidine-2-carbonitrile, reference compound], the “Inhibition … percentage” value with gastric acid secretion (50 mg/kg p.o.) stood at 45 percentage. The compound also came in with a Therapeutic index in the data set on gastric acid secretion (rat, in vivo, po) of 9.4. In “in vivo”, this compound came in with an LD50 of 470 mg/kg.
Regarding `CCCN(CCC)C(=O)C(CCC(=O)O)NC(=O)c1ccccc1` (racemic) [proglumide, D,L-4-benzamido-N,N-dipropylglutaramic acid, reference compound], in the data set on gastric acid secretion (200 mg/kg p.o.), the “Inhibition … percentage” value is recorded as “about 20 percentage”. The Therapeutic index with gastric acid secretion (gastric acid secretion, p.o.) was 11.4. In addition, the 50% lethal dose (LD50) in the data set “in vivo” was found to be 2780 mg/kg.
Take `CC(=O)Nc1cnn2c1-c1ccccc1N(C(C)=O)C2(C)C` [Example 34]: the LD50 in the data set “Acute toxicity” worked out at 2000 mg/kg. The ED50 with acetic acid writhing (po) was found to be 25 mg/kg; in the data set on small intestine (po), 60 mg/kg. The Therapeutic index was found to be 80 with acetic acid writhing (analgesic activity test, p.o.) and 33 in the data set with small intestine (antiperistaltic effect, p.o.).
Regarding `CC(=O)Nc1cnn2cnc3ccccc3c12` [Example 5, 1-Acetaminopyrazolo[1,5-c]quinazoline], the LD50 in “Acute toxicity” amounted to 2000 mg/kg. Besides, the “Inhibition … percentage” value in the data set on gastric acid secretion (70 mg/kg p.o.) is recorded as “about 50 percentage”; with gastric acid secretion (100 mg/kg p.o.), 93 percentage. Further, the Therapeutic index in the data set on gastric acid secretion (rat, in vivo, po) is listed as 28.6; in the data set on small intestine (mouse, in vivo, po), 5. In addition, the ED50 in the data set with small intestine (setting [1]) was found to be 400 mg/kg.
